Results on eight compounds are retold here after PubChem BioAssay (NCI).

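Cells were grown in 96-well plates and exposed to each compound for 48 hours at five concentrations; endpoints were interpolated linearly between bracketing concentrations, or set to the highest concentration if not reached. At the TGI there is no net growth.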

Among the test systems are IGROV1 ovarian; U251 CNS; UACC-62 melanoma; T-47D breast; M14 melanoma; OVCAR-3 ovarian; SNB-75 CNS; MDA-MB-231 breast; SK-MEL-5 melanoma; A498 renal; DU-145 prostate; HS 578T breast; NCI-H522 lung; PC-3 prostate; NCI-H23 lung; OVCAR-8 ovarian; A549 NSCLC; HCC-2998 colon; HL-60(TB) leukemia; EKVX NSCLC.
What all share (experiment): NCI tumour cell line growth inhibition, 48 h

For `O=C1CC(=O)NC(=NN2C(=O)CSC2c2ccc(Cl)cc2)N1` (stereo not given), the TGI in the experiment with IGROV1 ovarian, in the experiment with U251 CNS, with UACC-62 melanoma, with T-47D breast, in the experiment with M14 melanoma and in the experiment with OVCAR-3 ovarian was more than 100 µM throughout. The TGI in the experiment with SNB-75 CNS, in the experiment on MDA-MB-231 breast, in the experiment on SK-MEL-5 melanoma, in the experiment with A498 renal, with DU-145 prostate and with HS 578T breast was more than 100 µM each time. Besides, the TGI in the experiment with NCI-H522 lung, with PC-3 prostate, in the experiment on NCI-H23 lung, with OVCAR-8 ovarian, in the experiment on A549 NSCLC and with HCC-2998 colon was more than 100 µM each time.
On to `O=C(O[C@H](/C=C/c1ccccc1)P1(=O)N(Cc2ccccc2)[C@H]2CCCC[C@@H]2N1Cc1ccccc1)c1ccccc1`, for which the TGI in the experiment on IGROV1 ovarian was 18.6 µM; in the experiment with U251 CNS it was 88.7 µM; with HL-60(TB) leukemia it was more than 100 µM; in the experiment with UACC-62 melanoma, more than 100 µM; in the experiment with EKVX NSCLC, more than 100 µM; with T-47D breast, 3.86 µM. The TGI is more than 100 µM in the experiment on M14 melanoma; more than 100 µM in the experiment with OVCAR-3 ovarian; 25.7 µM in the experiment on MDA-MB-231 breast; 4.1 µM with SK-MEL-5 melanoma; more than 100 µM in the experiment with A498 renal; more than 100 µM with HS 578T breast. Also, the TGI was more than 100 µM in the experiment with NCI-H522 lung; more than 100 µM with PC-3 prostate; 48.3 µM with NCI-H23 lung; more than 100 µM in the experiment with OVCAR-8 ovarian; more than 100 µM in the experiment with A549 NSCLC; more than 100 µM with HCC-2998 colon.
In the case of `CCOC(=O)/C1=C(\C)N(Cc2ccccc2)C(=O)c2ccccc2C(=O)c2c(OC(C)=O)ccc(OC(C)=O)c21`, the TGI in the experiment with IGROV1 ovarian was more than 100 µM; with U251 CNS, more than 100 µM; in the experiment with HL-60(TB) leukemia, 79.1 µM; in the experiment with UACC-62 melanoma, more than 100 µM; in the experiment with EKVX NSCLC, 90.9 µM; with T-47D breast, more than 100 µM. The TGI in the experiment on OVCAR-3 ovarian is 80.9 µM; with SNB-75 CNS it was more than 100 µM; with MDA-MB-231 breast, more than 100 µM; with SK-MEL-5 melanoma it was more than 100 µM; with A498 renal it was more than 100 µM; in the experiment on HS 578T breast, more than 100 µM. Also, the TGI in the experiment with NCI-H522 lung is more than 100 µM; in the experiment on OVCAR-8 ovarian, more than 100 µM; in the experiment with A549 NSCLC, more than 100 µM; in the experiment with HCC-2998 colon, 37.4 µM.
Turning to `O=S(=O)(Cc1ccccc1)c1nnc(S(=O)(=O)c2ccc(Cl)cc2)s1`, the TGI with U251 CNS was 94.9 µM; in the experiment with UACC-62 melanoma, 58.7 µM; in the experiment on EKVX NSCLC, 62 µM; in the experiment on T-47D breast, more than 100 µM; with M14 melanoma, 33.7 µM; with OVCAR-3 ovarian it was 58.6 µM. Further, the TGI in the experiment on SNB-75 CNS is 32.5 µM; with MDA-MB-231 breast it was 91.7 µM; with SK-MEL-5 melanoma it was 33.6 µM; in the experiment on A498 renal, 43.6 µM; with DU-145 prostate, 34.3 µM; in the experiment with HS 578T breast, 39.8 µM. The TGI with NCI-H522 lung was determined as 30.8 µM; in the experiment with PC-3 prostate, 46.7 µM; in the experiment on NCI-H23 lung, 54.2 µM; in the experiment on OVCAR-8 ovarian, 42.8 µM; in the experiment on A549 NSCLC it was 68.1 µM.
Turning to `CCc1n[nH]c(=O)n1-n1c(C)ccc1C`, the TGI in the experiment with IGROV1 ovarian, in the experiment with U251 CNS, with UACC-62 melanoma, in the experiment with EKVX NSCLC, with T-47D breast and in the experiment on M14 melanoma was more than 100 µM throughout. The TGI with OVCAR-3 ovarian, in the experiment with SNB-75 CNS, in the experiment with MDA-MB-231 breast, with SK-MEL-5 melanoma, in the experiment with A498 renal and in the experiment with DU-145 prostate was more than 100 µM throughout. In addition, the TGI in the experiment with HS 578T breast, with NCI-H522 lung, in the experiment with PC-3 prostate, in the experiment on OVCAR-8 ovarian, in the experiment with A549 NSCLC and in the experiment on HCC-2998 colon was more than 100 µM each time.
In the case of `COC(=O)CSc1cc(Cl)c(C)cc1S(=O)(=O)Nc1n[nH]c(N)n1`, the TGI in the experiment on IGROV1 ovarian, with U251 CNS, in the experiment with HL-60(TB) leukemia, with EKVX NSCLC, in the experiment on T-47D breast and with M14 melanoma was more than 10 µM each time. For the same compound, the TGI with OVCAR-3 ovarian, in the experiment on SNB-75 CNS, in the experiment on SK-MEL-5 melanoma, in the experiment on A498 renal, in the experiment with DU-145 prostate and in the experiment with HS 578T breast was more than 10 µM throughout. Also, the TGI with NCI-H522 lung, in the experiment with PC-3 prostate, with NCI-H23 lung, in the experiment with OVCAR-8 ovarian, in the experiment on A549 NSCLC and in the experiment with HCC-2998 colon was more than 10 µM in each case.
As to `O=C1NC(=Nc2ccccc2Cl)N/C1=C\c1c(Cl)cccc1Cl`, the TGI was more than 100 µM in the experiment on IGROV1 ovarian; more than 100 µM with U251 CNS; 54.2 µM with HL-60(TB) leukemia; more than 100 µM in the experiment on UACC-62 melanoma; 79.3 µM with EKVX NSCLC; 81.1 µM in the experiment with T-47D breast. Also, the TGI with M14 melanoma was more than 100 µM; in the experiment on OVCAR-3 ovarian it was more than 100 µM; with SNB-75 CNS, 76.3 µM; in the experiment on SK-MEL-5 melanoma, 47.2 µM; in the experiment with A498 renal, more than 100 µM; with DU-145 prostate it was more than 100 µM. The TGI in the experiment with HS 578T breast was 99 µM; in the experiment on NCI-H522 lung, 58.7 µM; with PC-3 prostate, 76.8 µM; with NCI-H23 lung, more than 100 µM; with OVCAR-8 ovarian, more than 100 µM; with A549 NSCLC, more than 100 µM. Moreover, the TGI in the experiment on HCC-2998 colon is 55.3 µM.
As for `O=[N+]([O-])c1ccccc1S(=O)(=O)c1cccc2c1NCCC2`, the TGI in the experiment on IGROV1 ovarian, in the experiment with HL-60(TB) leukemia, in the experiment on UACC-62 melanoma, in the experiment with EKVX NSCLC, with M14 melanoma and with OVCAR-3 ovarian was more than 100 µM each time. The TGI is more than 100 µM with SNB-75 CNS; more than 100 µM in the experiment with MDA-MB-231 breast; 52.3 µM with SK-MEL-5 melanoma; more than 100 µM with A498 renal; more than 100 µM with DU-145 prostate; more than 100 µM in the experiment on HS 578T breast. For the same compound, the TGI in the experiment on PC-3 prostate, with OVCAR-8 ovarian, in the experiment with A549 NSCLC and in the experiment with HCC-2998 colon was more than 100 µM throughout.
